Reference: the NIST ThermoML archive (doi:10.1021/je900643r)

How the values were obtained:
[1] = 298.15 K; for surface tension liquid-gas: Drop volume; for mass density: 101.33 kPa, Liquid
[2] = xn = mol fraction of the nth substance listed; details: 298.15 K; for surface tension liquid-gas: Drop volume; for mass density: 101 kPa, Liquid

Cc1ccc(C)cc1 [1,4-dimethylbenzene]
[1]
Details | mass density [kg/m3] | surface tension liquid-gas [mN/m]
– | 856.51 | 27.7

Cc1ccc(C)cc1 [1,4-dimethylbenzene] + CCCCCC
[2]
Details | mass density [kg/m3] | surface tension liquid-gas [mN/m]
x2 = 0.0393 | 848.42 | –
x2 = 0.0535 | – | 26.84
x2 = 0.0718 | – | 26.58
x2 = 0.0869 | 838.63 | –
x2 = 0.1265 | – | 25.76
x2 = 0.1341 | – | 25.66
x2 = 0.1535 | 824.96 | –
x2 = 0.208 | 813.78 | –
x2 = 0.3063 | 793.59 | –
x2 = 0.3083 | – | 23.45
x2 = 0.3397 | – | 23.1
x2 = 0.3524 | 784.21 | –
x2 = 0.399 | – | 22.47
x2 = 0.4333 | 767.75 | –
x2 = 0.467 | – | 21.81
x2 = 0.4867 | 756.93 | –
x2 = 0.492 | – | 21.59
x2 = 0.5267 | – | 21.29
x2 = 0.5404 | 746.02 | –
x2 = 0.5836 | 737.32 | –
x2 = 0.6034 | – | 20.67
x2 = 0.638 | 726.41 | –
x2 = 0.6394 | – | 20.39
x2 = 0.6877 | – | 20.07
x2 = 0.6903 | 715.94 | –
x2 = 0.7826 | – | 19.41
x2 = 0.7872 | 696.69 | –
x2 = 0.8126 | – | 19.22
x2 = 0.8297 | 688.25 | –
x2 = 0.8798 | – | 18.79
x2 = 0.8952 | 675.28 | –
x2 = 0.9417 | 666.19 | –

CCCCCC [hexane]
[1]
Details | mass density [kg/m3] | surface tension liquid-gas [mN/m]
– | 654.7 | 17.91

CCCOC(=O)CC [propyl propanoate]
[1]
Details | mass density [kg/m3] | surface tension liquid-gas [mN/m]
– | 875.53 | 24.1
